Results: US11541051B2, “Compositions and methods for treating CDK4/6-mediated cancer” (Icahn School of Medicine at Mount Sinai, priority 2016, dated 2023)
“Also recorded” adds a separate entry of the source.

Assays:
Type in all cases: cell-based
[1] = biological target: T1, CDK4/6 (Homo sapiens, UniProt P11802); assay: Western blot of CDK4/6 and phospho-Rb in T47D breast cancer cells treated with degraders (Example 12, FIGS. 10 B, 17, 19); details: 24 h
T1 construct: endogenous in cells; host or cells: MCF7, T47D, ZR-75-1 (breast cancer); A375, SK-MEL-2, SK-MEL-30, WM1382 (melanoma)
T1 sequence (P11802 2-303): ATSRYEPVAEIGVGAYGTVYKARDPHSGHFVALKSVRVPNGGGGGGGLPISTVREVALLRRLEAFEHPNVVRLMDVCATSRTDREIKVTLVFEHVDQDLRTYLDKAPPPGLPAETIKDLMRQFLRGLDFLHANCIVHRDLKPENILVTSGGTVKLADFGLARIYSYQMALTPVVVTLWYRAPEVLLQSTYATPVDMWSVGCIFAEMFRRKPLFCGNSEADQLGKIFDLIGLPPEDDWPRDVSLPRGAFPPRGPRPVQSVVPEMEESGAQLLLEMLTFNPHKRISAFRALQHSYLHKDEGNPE
Description: (§1) Breast cancer cell lines (MCF7, T47D, and ZR-75-1) and melanoma cell lines (A375, SK-MEL-2, SK-MEL-30, and WM1382) were cultured in the presence of DMEM or RPMI supplemented with 10% FBS in the presence of penicillin and streptomycin.
(§2) Protein concentrations were determined by BCA from cell lysates and equal amounts of protein are loaded to a Bis-Tris 4-12% gel. Gels were run at 80 V for 4 h using 1× running buffer (25 mM Tris, pH 8.3, […] glycine, 0.1% SDS). Proteins were transferred to a nitrocellulose membrane for 2 h at 100 V using transfer buffer (25 mM Tris, pH 8.3, […] glycine, 20% methanol). Ponceau S staining (0.1% Ponceau S, 1% acetic acid) was used to confirm transfer of proteins to the membrane followed by blocking of the membrane for 30 min at room temperature using blocking buffer (5% dry nonfat milk, 0.1% Tween, 0.02% sodium azide in TBS). The blocked membrane is incubated with primary antibodies (1:1000 dilution) in blocking buffer at 4° C. overnight. When primary phosphor-antibodies were used, then the membrane is incubated with 5% BSA instead of milk. The membrane was washed three times, 10 min each, with wash buffer (0.1% Tween in TBS) followed by incubation with secondary HRP conjugated antibody (1:5000 dilution) in 2.5% dry nonfat milk, 0.1% Tween in TBS for 1 h at room temperature. The membrane was washed three times, 10 min each, with wash buffer (0.1% Tween in TBS). Membranes are incubated with ECL for 1 min and proteins are detected after exposure to a blue autoradiographic film.
(§3) MCF7 breast cancer cells were treated with 1 or 5 μM XY019-095, XY019-098, XY019-0100, XY019-105A, XY019-105B, XY019-106, or XY019-108 for 24 h, then lysed and immunoblotted with antibodies to CDK4, CDK6, and actin (FIG. 10, panel A). […] T47D breast cancer cells were treated with 0.1, 0.3, 1, 3, 10, or 30 μM XY019-106 for 24 h, then lysed and immunoblotted with antibodies to phospho-Rb (pRB), CDK4, and actin (FIG. 10, panel B).
(§4) T47D breast cancer cells (FIG. 17) were treated with 0.3 or 1 μM XY028-140, YX039-48, YX039-123, YX039-56, YX039-124, YX039-65, YX039-147 or YX039-74 for 24 h, then lysed and immunoblotted with antibodies to phospho-Rb (pRb), total Rb, PLK1, cyclin A, CDK4, CDK6, and actin.
(§5) T47D breast cancer cells (FIG. 19) were treated with 0.3 or 1 μM XY028-133, YX044-18, YX044-22, XY028-140, YX044-19 or YX044-38 for 24 h, then lysed and immunoblotted with antibodies to phospho-Rb (pRb), total Rb, PLK1, cyclin A, CDK4, CDK6, and actin.

[2] = system: CDK4/6; assay: as above; details: concentrations as high as 30 μM, 24 h
Description: as §1, §2, §3, §4, §5

[3] = system: CDK4/6; assay: Characterization of CDK4/6 degraders/disruptors in various breast cancer and melanoma cells (summary, Examples 12 and 13)
Description: Specific exemplary abemaciclib-, ribociclib-, and palbociclib-based CDK4/6 degraders/disruptors were characterized in various different breast cancer and melanoma cells (Examples 12 and 13, FIGS. 10-23). […] This efficacy in suppressing CDK4/6 expression and CDK4/6 activity correlated with efficacy in inhibiting cancer cell proliferation.
as §2

[4] = system: CDK4/6; assay: Western blot of CDK4, CDK6 and phospho-Rb in SK-MEL-2 or A375 melanoma cells treated with degraders (Example 12, FIG. 11); details: SK-MEL-2 or A375 cells; 1 or 3 μM; 24 h
Description: as §1
as §2, with “The membrane was washed three times, 10 min each, with wash buffer (0.1% Tween in TBS) followed by incubation with secondary HRP conjugated antibody (1:5000 dilution) in 2.5% dry nonfat milk, 0.1% Tween in TBS for 1 h at room temperature. The membrane was washed three times, 10 min each, with wash buffer (0.1% Tween in TBS).” left out, “film. […]” for “film.”

[5] = system: CDK4/6; assay: Western blot of CDK4 and CDK6 in MCF7 breast cancer cells treated with degraders (Example 12, FIG. 10 A); details: 1 or 5 μM, 24 h
Description: as §1, §2, §3

[6] = system: CDK4/6; assay: Western blot of CDK4, CDK6 and phospho-Rb in A375 melanoma cells treated with degraders (Example 12, FIGS. 12, 13, 16, 18); details: 24 h
Description: as §1, §2
A375 melanoma cells (FIG. 13) were treated with 1 or 3 μM Ribociclib (RB), YX030-126, YX030-108, YX030-107, YX030-086, YX030-085 or XY028-133 for 24 h, then lysed and immunoblotted with antibodies to CDK4, CDK6, cyclin A, PLK1, phospho-Rb (pRb), and actin.
A375 melanoma cells (FIG. 16, panel A) were treated with 0.3 or 1 μM XY028-140, YX039-65, YX039-48, YX039-123, YX039-56, YX039-124 or YX039-147 for 24 h. A375 melanoma cells were treated with 1 or 3 μM XY028-140, YX039-56, YX039-65 or XY028-133 (FIG. 16, panel B). Cells were lysed and immunoblotted with antibodies to phospho-Rb (pRb), total Rb, PLK1, cyclin A, CDK4, CDK6, and actin.
A375 melanoma cells (FIG. 18) were treated with 1 or 3 μM XY028-133, YX044-18, YX044-22, XY028-140, YX044-19 or YX044-38 for 24 h, then lysed and immunoblotted with antibodies to phospho-Rb (pRb), total Rb, PLK1, cyclin A, CDK4, CDK6, and actin.

[7] = system: A375 melanoma cells; assay: Bright field imaging of A375 melanoma cell proliferation (Example 13, FIG. 20); details: 1 or 2 μM, 7 days
[8] = system: A375 melanoma cells; assay: Crystal violet staining (clonogenic assay) of A375 melanoma cells (Example 13, FIG. 21); details: 0.03-3 μM, 11 days
Description: Cells were cultured for 7-11 days in the presence of different compounds. Media with compound was replenished every two days. At the end of the experiment, media was aspirated and viable cells were stained with 0.5% crystal violet dye.

[9] = system: V5-tagged CDK4 or V5-tagged CDK6; assay: Western blot of V5-tagged CDK4 or CDK6 ectopically expressed in 293H cells (Example 8); details: 1, 3 or 10 μM, 24 h
Description: Protein concentrations were determined by BCA from cell lysates and equal amounts of protein are loaded to a Bis-Tris 4-12% gel. Gels were run at 80 V for 4 h using 1× running buffer (25 mM Tris, pH 8.3, 1.92 M glycine, 0.1% SDS). Proteins were transferred to a nitrocellulose membrane for 2 h at 100 V using transfer buffer (25 mM Tris, pH 8.3, 1.92 M glycine, 20% methanol). Ponceau S staining (0.1% Ponceau S, 1% acetic acid) was used to confirm transfer of proteins to the membrane followed by blocking of the membrane for 30 min at room temperature using blocking buffer (5% dry nonfat milk, 0.1% Tween, 0.02% sodium azide in TBS). The blocked membrane is incubated with primary antibodies (1:1000 dilution) in blocking buffer at 4° C. overnight. When primary phosphor-antibodies were used, then the membrane is incubated with 5% BSA instead of milk. The membrane was washed three times, 10 min each, with wash buffer (0.1% Tween in TBS) followed by incubation with secondary HRP conjugated antibody (1:5000 dilution) in 2.5% dry nonfat milk, 0.1% Tween in TBS for 1 h at room temperature. The membrane was washed three times, 10 min each, with wash buffer (0.1% Tween in TBS). Membranes are incubated with ECL for 1 min and proteins are detected after exposure to a blue autoradiographic film.

SMILES | suppression of CDK4 expression and inhibition of CDK4 activity (Rb phosphorylation) ([1]; 0.1-30 μM) | concentrations with significant effects on CDK4 expression and Rb phosphorylation [1] | inhibition of Rb phosphorylation at high concentrations [2] | suppression of both CDK4/6 expression and CDK4/6 activity (summary) [3] | efficacy in inhibiting both CDK4/6 expression and CDK4/6 activity (decreased Rb phosphorylation) [4] | suppression of CDK4/6 expression [5] | efficacy in inhibiting both CDK4/6 expression and CDK4/6 activity (decreased Rb phosphorylation) ([6]; 1 or 3 μM) | inhibition of cancer cell proliferation compared with palbociclib (bright field imaging) [7] | efficacy in inhibiting both CDK4/6 expression and CDK4/6 activity (decreased Rb phosphorylation) ([6]; 0.3 or 1 μM (FIG. 16 A), 1 or 3 μM (FIG. 16 B)) | inhibition of cancer cell proliferation compared with palbociclib (crystal violet staining) [8] | expression of V5-tagged CDK4 and CDK6 [9]
CC(=O)c1c(C)c2cnc(Nc3ccc(N4CCN(C(=O)CCCCCCC(=O)N[C@H](C(=O)N5C[C@H](O)C[C@H]5C(=O)NCc5ccc(-c6scnc6C)cc5)C(C)(C)C)CC4)cn3)nc2n(C2CCCC2)c1=O [XY019-106, (2S,4R)-1-((S)-2-(8-(4-(6-((6-acetyl-8-cyclopentyl-5-methyl-7-oxo-7,8-dihydropyrido[2,3-d]pyrimidin-2-yl)amino)pyridin-3-yl)piperazin-1-yl)-8-oxooctanamido)-3,3-dimethylbutanoyl)-4-hydroxy-N-(4-(4-methylthiazol-5-yl)benzyl)pyrrolidine-2-carboxamide] | both suppresses CDK4 expression and inhibit CDK4 activity | ≥ 0.3 µM | inhibited Rb phosphorylation even when administered at high concentrations | especially effective in suppressing both CDK4/6 expression and CDK4/6 activity | efficacy of CDK4/6 degraders/disruptors, particularly XY019-106 and XY028-003 | especially effective in suppressing CDK4/6 expression even at 1 μM | efficacy of CDK4/6 degraders, particularly XY028-133, XY028-140, XY019-106 and XY028-003 | – | – | – | –
CC(=O)c1c(C)c2cnc(Nc3ccc(N4CCN(C(=O)CCCCCC(=O)N[C@H](C(=O)N5C[C@H](O)C[C@H]5C(=O)NCc5ccc(-c6scnc6C)cc5)C(C)(C)C)CC4)cn3)nc2n(C2CCCC2)c1=O [XY028-133, (2S,4R)-1-((S)-2-(7-(4-(6-((6-acetyl-8-cyclopentyl-5-methyl-7-oxo-7,8-dihydropyrido[2,3-d]pyrimidin-2-yl)amino)pyridin-3-yl)piperazin-1-yl)-7-oxoheptanamido)-3,3-dimethylbutanoyl)-4-hydroxy-N-(4-(4-methylthiazol-5-yl)benzyl)pyrrolidine-2-carboxamide] | – | – | – | especially effective in suppressing both CDK4/6 expression and CDK4/6 activity | – | – | efficacy of CDK4/6 degraders, particularly XY028-133, XY028-140, XY019-106 and XY028-003; also recorded: efficacy of CDK4/6 degraders, particularly XY028-133 and YX044-18 | more effective in inhibiting cancer cell proliferation than palbociclib at the same concentration | efficacy of CDK4/6 degraders, particularly XY028-133 | more effective in inhibiting cancer cell proliferation than palbociclib at 1 and 3 μM | –
CN(C)C(=O)c1cc2cnc(Nc3ccc(N4CCNCC4)cn3)nc2n1C1CCCC1 [ribociclib] | – | – | – | – | – | – | – | – | – | – | upregulated the expression of V5-tagged CDK4 and CDK6
